{"source": "ChEMBL document CHEMBL3045101", "about": "“Hypoglycemic effect of astaxanthin from shrimp waste in alloxan-induced diabetic mice” (2012)", "key": {"Mus musculus [1]": {"tested_on": "Mus musculus", "assay": "Antidiabetic activity in Mus musculus Kunming (mouse) alloxan-induced diabetic model assessed as reduction of 16 hr fasting plasma glucose level at 10 mg/kg, po qd for 7 days (reference value: 6.11 +/- 0.64 mmol/l)", "assay_type": "functional"}, "Mus musculus [2]": {"tested_on": "Mus musculus", "assay": "Hypoglycemic activity in Mus musculus Kunming (mouse) assessed as reduction of 16 hr fasting plasma glucose level at 2.4 mg/kg, po qd for 7 days by oral glucose tolerance test (reference value: 6.20 +/- 0.63 mmol/l)", "assay_type": "functional"}, "Mus musculus [3]": {"tested_on": "Mus musculus", "assay": "Hypoglycemic activity in Mus musculus Kunming (mouse) assessed as reduction of AUC of plasma glucose level at 5 to 10 mg/kg, po qd for 7 days by oral glucose tolerance test", "assay_type": "functional, organism-based"}, "Mus musculus [4]": {"tested_on": "Mus musculus", "assay": "Antidiabetic activity in Mus musculus Kunming (mouse) alloxan-induced diabetic model assessed as reduction of 16 hr fasting plasma glucose level at 5 mg/kg, po qd for 7 days (reference value: 6.11 +/- 0.64 mmol/l)", "assay_type": "functional"}, "Mus musculus [5]": {"tested_on": "Mus musculus", "assay": "Hypoglycemic activity in Mus musculus Kunming (mouse) assessed as reduction of 16 hr fasting plasma glucose level at 10 mg/kg, po qd for 7 days by oral glucose tolerance test (reference value: 6.20 +/- 0.63 mmol/l)", "assay_type": "functional"}, "Mus musculus [6]": {"tested_on": "Mus musculus", "assay": "Hypoglycemic activity in Mus musculus Kunming (mouse) assessed as reduction of 16 hr fasting plasma glucose level at 5 mg/kg, po qd for 7 days by oral glucose tolerance test (reference value: 6.20 +/- 0.63 mmol/l)", "assay_type": "functional"}}, "note": "Activity calls are given as the source filed them. The rule behind the calls is not given here."}
{"compound": "CN(C)C(=N)NC(=N)N", "note": "[METFORMIN]", "values": [{"measurement": "Activity", "setting": "Mus musculus [1]", "result": 9.98, "unit": "mmol/L"}]}
{"compound": "Cc1ccc(S(=O)(=O)NC(=O)NN2CC3CCCC3C2)cc1", "note": "(configuration not stated) [GLICLAZIDE]", "values": [{"measurement": "Activity", "setting": "Mus musculus [2]", "result": 4.69, "unit": "mmol/L"}]}
{"compound": "CC1=C(/C=C/C(C)=C/C=C/C(C)=C/C=C/C=C(C)/C=C/C=C(C)/C=C/C2=C(C)C(=O)[C@@H](O)CC2(C)C)C(C)(C)C[C@H](O)C1=O", "note": "[ASTAXANTHIN]", "values": [{"measurement": "Activity", "setting": "Mus musculus [3]", "result": "Active"}, {"measurement": "Activity", "setting": "Mus musculus [4]", "result": 13.03, "unit": "mmol/L"}, {"measurement": "Activity", "setting": "Mus musculus [5]", "result": 6.02, "unit": "mmol/L"}, {"measurement": "Activity", "setting": "Mus musculus [1]", "result": 10.11, "unit": "mmol/L"}, {"measurement": "Activity", "setting": "Mus musculus [6]", "result": 6.14, "unit": "mmol/L"}]}
